Data taken from article PMC7297381, “Potent, specific MEPicides for treatment of zoonotic staphylococci” (PLoS Pathogens, 2020).
Converted amounts (≈) assume the structure as drawn. Read-outs that look alike come from different tables or passages of the source.

Legend:
[1] = target: S. schleiferi DXR enzyme (Staphylococcus schleiferi, UniProt A0ABF7SXB4); experiment: S. schleiferi DXR enzyme activity and inhibition (NADPH oxidation at 340 nm); format: biochemical; conditions: for inhibition of purified recombinant S. schleiferi DXR in vitro: prodrug, uncleaved
Protocol: (§1) . The sequence was confirmed by Sanger sequencing and the plasmid was transformed into E. coli BL21(DE3) pLysS (Life Technologies). Gene expression was induced for 2 h with 1 mM isopropyl-β-D-thiogalactoside (IPTG) and cells were harvested by centrifugation at 4274 x g for 10 min at 4°C. The cell pellet was lysed by sonication in lysis buffer containing 25 mM Tris HCl (pH 7.5), 100 mM NaCl, 20 mM imidazole, 10% glycerol, 1 mM MgCl2, 1 mM dithiothreitol (DTT), 1 mg/mL lysozyme, 75 U benzonase and 1 Complete Mini EDTA-free protease inhibitor tablet (Roche Applied Science). The hexahistidine-tagged DXR protein was affinity purified from soluble lysate via nickel agarose beads (Gold Biotechnology). Bound protein was eluted in 300 mM imidazole, 25 mM Tris HCl (pH 7.5), 1 mM MgCl2 and 100 mM NaCl. Purified protein was dialyzed in buffer containing 10% glycerol without imidazole prior to analysis. The enzyme was frozen in liquid nitrogen and stored permanently at -80°C.
Oxidation of NADPH to NADP^+ as a result of substrate turnover was monitored at 340 nm in a POLARstar Omega microplate reader (BMG Labtech)[73]. […] Reactions were initiated by the addition of DOXP after 15 min incubation of the reaction mixture without DOXP at 37°C. Absorption at 340 nm was measured continuously for up to 45 min. For Km [DOXP] determination, DOXP concentrations between 0 and 2 mM were tested at 0.5 mM NADPH. The linear range of enzyme activity was determined by varying the DXR concentration at 1 mM DOXP and 1 mM NADPH. IC50 assays were performed using the standard reaction conditions with the respective amount of DXR inhibitor added to obtain the given final concentrations. Data points from at least three independent replicates were analyzed by nonlinear regression using GraphPad Prism software. Slopes of changing absorbance values were converted to (μM DOXP)(mg enzyme)^-1 s ^-1 using a NADPH standard curve (data not shown). For the determination of the inhibitory constant Ki [FSM] of DXR, enzyme activity over a range of DOXP substrate concentrations between 0 and 2 mM was measured for FSM between 0 mM to 4 mM. Data points from at least three independent replicates were analyzed as described above.

[2] = tested on: S. pseudintermedius; experiment: Growth inhibition assay of Staphylococcus species (OD600, 20 h); conditions: read-out: S. pseudintermedius IC50
Protocol: (§2) Overnight cultures were diluted 1:200 in LB media and grown at 37°C until the mid-logarithmic phase (OD600 = 0.5–0.8). Cultures were diluted in a 96-well plate to 1 x 10^5 in 150 μL LB media and treated with inhibitors at concentrations ranging from 2 nM to 100 μM. Bacteria were grown at 37°C for 20 h with cyclic shaking at 700 rpm in a FLUOstar Omega microplate reader (BMG Labtech). Growth was assessed over 20 h by measuring the OD600 at 20 min increments. The half-maximal inhibitory concentration (IC50) values were determined during logarithmic growth using GraphPad Prism software. All experiments were performed at least in triplicate and data reported represent the mean ± SEM.

[3] = tested on: S. schleiferi; experiment: as above; conditions: read-out: S. schleiferi IC50
Protocol: as §2

[4] = tested on: S. aureus; experiment: as above; conditions: for IC50: Staphylococcus aureus, read-out: S. aureus IC50
Protocol: as §2

[5] = tested on: HepG2 cells; parameters: method as in PMID 28827774, PMID 30192536; conditions: previous work ref [42], [53]; read-out: IC50 against HepG2 cells; cited from earlier work
[6] = tested on: Klebsiella pneumoniae; experiment: Growth inhibition assay for Gram-negative bacteria; format: cell-based; conditions: for IC50: Klebsiella pneumoniae, ATCC43816, ATCC 43816, mean ± SD
[7] = tested on: Burkholderia thailandensis; experiment: microbe, parasite or virus in culture; format: cell-based; conditions: read-out: Burkholderia thailandensis IC50
[8] = tested on: S. schleiferi; experiment: MIC by microtiter broth dilution, wild-type and FSM-resistant strains; conditions: for sensitivity of FSM^R glpT mutant S. schleiferi strains (MIC fold change vs WT): strains 3408, 4494, 7376, 8400
Protocol: (§3) Minimum Inhibitory Concentration (MIC) assays were conducted by microtiter broth dilution in clear 96-well plates[78]. MEPicides were serially diluted in duplicate at concentrations ranging from 1.5 mM– 19.5 nM in 75 μL of LB broth. Bacteria cultured without drug were used as a positive control for growth. The plates were inoculated with 75 μL bacteria diluted to 1 x 10^5 CFU/mL in LB. Plates were incubated for 18–20 h while shaking at 200 RPM at 37°C. The plates were then visually inspected, and the MIC value was defined as the lowest concentration of MEPicide that prevented visual growth.

[9] = tested on: Salmonella typhimurium; experiment: Growth inhibition assay for Gram-negative bacteria; format: cell-based; conditions: Salmonella enterica, strain 04-018-0254, mean ± SD
[10] = tested on: Shigella sonnei; experiment: microbe, parasite or virus in culture; format: cell-based; conditions: mean ± SD
[11] = tested on: Escherichia coli; experiment: microbe, parasite or virus in culture; format: cell-based; conditions: for IC50: Escherichia coli, BW25113, mean ± SD
[12] = tested on: Serratia marcescens; experiment: Growth inhibition assay for Gram-negative bacteria; format: cell-based; conditions: strain 137.01, mean ± SD
[13] = tested on: S. pseudintermedius; experiment: Minimum bactericidal (MBC) assay, CFU after 24 h; conditions: 1 x and 10 x IC50, 24 h, CFU/mL
Protocol: (§4) Overnight cultures were diluted 1:200 in LB media and grown at 37°C until reaching mid-logarithmic phase of growth. […] Cultures were serially diluted in 1 X Dulbecco’s Phosphate Buffered Saline (PBS; Gibco) and plated on LB agar. Colonies were enumerated after overnight growth at 37°C. Values reflect the mean and standard deviations of at least three independent experiments.
(§5) Growth in CFU/mL of S. schleiferi and S. pseudintermedius after 24 h treatment is plotted against the respective treatment. Cultures were treated at 1 x IC50 concentration and/or 10x IC50 concentration of the inhibitors. Shown are the mean values + SD from at least three independent experiments.

[14] = tested on: S. schleiferi; experiment: Minimum bactericidal (MBC) assay, CFU after 24 h; conditions: 1 x and 10 x IC50, 24 h, CFU/mL
Protocol: as §4, §5

[15] = tested on: MEP pathway; experiment: Targeted LC-MS/MS profiling of MEP pathway intermediates; conditions: FSM at 10x IC50, 2 h, vs untreated
Protocol: (§6) MEP pathway metabolites were compared between untreated (UNT) S. schleiferi (A) and S. pseudintermedius (B) and bacteria treated with FSM at 10x the respective IC50 values. After 2 h treatment, bacterial cells were harvested and the cell pellets analyzed by LC-MS/MS. […] P-values were determined using a Student’s t-test.
(§7) Overnight cultures of Staphylococcus spp. were diluted 1:200 in LB media and grown at 37°C until reaching mid-logarithmic phase. Cultures were then treated for 2 h with FSM at 10x their IC50 while shaking at 37°C. For normalization, the OD600 was determined after 2 h of treatment with the DXR inhibitors. Cells were pelleted by centrifugation for 5 min at 3000 x g at 4°C. The supernatants were removed and cells were washed twice with 1 x PBS (Gibco). The supernatants were removed and the pellets stored at -80°C until analysis. MEP intermediates were extracted from the samples using glass beads (212–300 u) and 600 μL chilled H2O: chloroform: methanol (3:5:12 v/v) spiked with PIPES (piperazine-N,N′-bis(2-ethanesulfonic acid) as internal standard. The cells were disrupted with the TissueLyser II instrument (Qiagen) using a microcentrifuge tube adaptor set pre-chilled for 2 min at 20 Hz. The samples were then centrifuged at 16,000 x g at 4°C for 10 min, the supernatants collected, and pellet extraction repeated once more. The supernatants were pooled and 300 μL chloroform and 450 μL of chilled water were added to the supernatants. The tubes were vortexed and centrifuged. The upper layer was transferred to a 2 mL tube PVDF filter (ThermoFisher, F2520-5) and centrifuged for 5 min at 4,000 x g at 4°C. The samples were transferred to new tubes and dried using a speed-vac. […]
(§8) For LC separation, Luna-NH2 column (3 μm, 150 x 2 mm, Phenomenex) was used flowing at 0.4 mL/min. […] The metabolites were detected using MRM transitions that were previously optimized using standards. […] For quantification, an external standard curve was prepared using a series of standard samples containing different concentrations of metabolites and a fixed concentration of the internal standard. […]

[16] = tested on: MEP pathway; experiment: as above; conditions: FSM at 10x IC50, 2 h, vs untreated; remark: listed apart in the source
Protocol: as §6, §7, §8

[17] = tested on: S. pseudintermedius; experiment: MIC by microtiter broth dilution, wild-type and FSM-resistant strains
Protocol: as §3

[18] = substrate: CC(=O)[C@@H](O)[C@H](O)COP(=O)(O)O; experiment: S. schleiferi DXR enzyme activity and inhibition (NADPH oxidation at 340 nm); format: biochemical; conditions: other: 0.5 mM NADPH; pH 7.5; 37.0 °C
Protocol: as §1, with “Bound protein was eluted in 300 mM imidazole, 25 mM Tris HCl (pH 7.5), 1 mM MgCl2 and 100 mM NaCl. Purified protein was dialyzed in buffer containing 10% glycerol without imidazole prior to analysis. The enzyme was frozen in liquid nitrogen and stored permanently at -80°C.” left out
Oxidation of NADPH to NADP^+ as a result of substrate turnover was monitored at 340 nm in a POLARstar Omega microplate reader (BMG Labtech)[73]. […] Absorption at 340 nm was measured continuously for up to 45 min. […] The linear range of enzyme activity was determined by varying the DXR concentration at 1 mM DOXP and 1 mM NADPH. […] Data points from at least three independent replicates were analyzed by nonlinear regression using GraphPad Prism software. Slopes of changing absorbance values were converted to (μM DOXP)(mg enzyme)^-1 s ^-1 using a NADPH standard curve (data not shown). […] Data points from at least three independent replicates were analyzed as described above.

[19] = purified recombinant enzyme, mean ± SEM, read-out: S. schleiferi DXR enzyme IC50

Molecule: CC(=O)N(O)C/C=C/P(=O)(O)O [Compound 1]
- IC50 [1]: 3.31 ± 1.02 µM
- IC50 [2]: 54.5 ± 1.14 µM
- IC50 [3]: 55.5 ± 2.41 µM
- IC50 [4]: > 100 µM

Molecule: CC(=O)N(O)C/C=C/P(=O)(OCOC(=O)C(C)(C)C)OCOC(=O)C(C)(C)C [Compound 2]
- inhibition of purified recombinant S. schleiferi DXR in vitro [1]: poorly inhibit
- IC50 [1, 19]: > 100 µM
- IC50 [5]: > 100 µM
- IC50 [2]: 0.26 ± 0.03 µM
- inhibition of growth of Klebsiella pneumoniae [6]: does not inhibit growth
- IC50 [6]: > 100 µM
- IC50 [3]: 0.1 ± 0.01 µM
- IC50 [7]: > 100 µM
- sensitivity of FSM^R glpT mutant S. schleiferi strains (MIC fold change vs WT) [8]: remain sensitive
- IC50 [9]: > 100 µM
- IC50 [10]: > 100 µM
- IC50 [4]: > 100 µM
- inhibition of growth of E. coli [11]: does not inhibit growth
- IC50 [11]: > 1000 µM
- IC50 [12]: > 100 µM

Molecule: O=CN(O)C/C=C/P(=O)(O)O [Compound 3]
- IC50 [1]: 0.41 ± 0.11 µM
- IC50 [5]: > 50 µM
- IC50 [2]: 4.31 ± 0.51 µM
- IC50 [3]: 4.17 ± 0.47 µM
- sensitivity of FSM^R glpT mutant S. schleiferi strains (MIC fold change vs WT) [8]: cross-resistant
- IC50 [4]: > 100 µM

Molecule: CC(C)(C)C(=O)OCOP(=O)(/C=C/CN(O)C=O)OCOC(=O)C(C)(C)C [Compound 4]
- inhibition of purified recombinant S. schleiferi DXR in vitro [1]: poorly inhibit
- IC50 [1, 19]: 12.6 ± 1.98 µM
- IC50 [5]: > 50 µM
- IC50 [2]: 0.21 ± 0.04 µM
- IC50 [3]: 0.03 µM
- sensitivity of FSM^R glpT mutant S. schleiferi strains (MIC fold change vs WT) [8]: remain sensitive
- IC50 [4]: > 90 µM

Molecule: CC(=O)N(O)CCCP(=O)(O)O [FR-900098]
- IC50 [1]: 1 ± 0.18 µM
- mechanism-of-action on viable cells [13]: bacteriostatic
- IC50 [2]: 34.1 ± 6.54 µM
- IC50 [3]: 41.1 ± 6.65 µM
- mechanism-of-action on viable cells [14]: bacteriostatic
- inhibition of S. aureus growth [4]: neither FSM nor FR-900098 inhibit S. aureus growth
- IC50 [4]: > 100 µM

Molecule: O=CN(O)CCCP(=O)(O)O [FSM, fosmidomycin]
- Ki ([1]; competitive with respect to the DOXP substrate): 0.29 ± 0.022 µM
- IC50 [1, 19]: 0.67 ± 0.06 µM
- mode of DXR inhibition ([1]; with respect to the DOXP substrate): competitive
- increase of intracellular DOXP level [15]: 34.8 fold
- reduction of intracellular CDP-ME level [15]: 2.6 fold
- reduction of intracellular MEcPP level [15]: 2.4 fold
- mechanism-of-action on viable cells [13]: bacteriostatic
- IC50 [2]: 0.31 ± 0.04 µM
- increase of intracellular DOXP level [16]: 23.8 fold
- reduction of intracellular CDP-ME level [16]: 5.5 fold
- reduction of intracellular MEcPP level [16]: 4.5 fold
- IC50 [6]: 0.81 ± 0.56 µM
- MIC ([17]; read-out: FSM MIC, Parental S. pseudintermedius): 25.9 µM (≈ 4.74 µg/mL)
- MIC ([17]; read-out: FSM MIC, strain SPSE0643, GlpT W301X): 1120 µM (≈ 206 µg/mL)
- MIC ([17]; read-out: FSM MIC, strain SPSE1933, GlpT G99E): 875 µM (≈ 160 µg/mL)
- MIC ([17]; read-out: FSM MIC, strain SPSE2052, GlpT D88Y): 1120 µM (≈ 206 µg/mL)
- MIC ([17]; read-out: FSM MIC, strain SPSE2227, GlpT G135D): 1120 µM (≈ 206 µg/mL)
- MIC ([17]; read-out: FSM MIC, strain SPSE2648, GlpT G99E): 1000 µM (≈ 183 µg/mL)
- MIC ([17]; read-out: FSM MIC, strain SPSE5869, GlpT G135V): 938 µM (≈ 172 µg/mL)
- MIC ([17]; read-out: FSM MIC, strain SPSE6794, GlpT G99E): 1250 µM (≈ 229 µg/mL)
- MIC ([17]; read-out: FSM MIC, strain SPSE6909, GlpT G404D): 688 µM (≈ 126 µg/mL)
- MIC ([17]; read-out: FSM MIC, strain SPSE7104, GlpT G99E): 1250 µM (≈ 229 µg/mL)
- MIC ([17]; read-out: FSM MIC, strain SPSE7724, GlpT G400C): 1120 µM (≈ 206 µg/mL)
- MIC ([17]; read-out: FSM MIC, strain SPSE8628, no GlpT change): 1060 µM (≈ 195 µg/mL)
- MIC ([17]; read-out: FSM MIC, strain SPSE9765, no GlpT change): 1250 µM (≈ 229 µg/mL)
- IC50 [3]: 0.78 ± 0.13 µM
- IC50 [7]: > 100 µM
- MIC ([8]; read-out: FSM MIC, Parental S. schleiferi): 19.8 µM (≈ 3.63 µg/mL)
- MIC ([8]; read-out: FSM MIC, strain SSCH1903, GlpT G99X): 719 µM (≈ 132 µg/mL)
- MIC ([8]; read-out: FSM MIC, strain SSCH3408, GlpT A267E): 500 µM (≈ 91.6 µg/mL)
- MIC ([8]; read-out: FSM MIC, strain SSCH3612, GlpT G99V): 688 µM (≈ 126 µg/mL)
- MIC ([8]; read-out: FSM MIC, strain SSCH3624 (second line), GlpT A309S): 562 µM (≈ 103 µg/mL)
- MIC ([8]; read-out: FSM MIC, strain SSCH3624, GlpT G99V): 688 µM (≈ 126 µg/mL)
- MIC ([8]; read-out: FSM MIC, strain SSCH3717, no GlpT change): > 1500 µM
- MIC ([8]; read-out: FSM MIC, strain SSCH4455, GlpT G298X): > 1500 µM
- MIC ([8]; read-out: FSM MIC, strain SSCH4494, GlpT G99X): 750 µM (≈ 137 µg/mL)
- MIC ([8]; read-out: FSM MIC, strain SSCH7376, GlpT W148C): 438 µM (≈ 80.1 µg/mL)
- MIC ([8]; read-out: FSM MIC, strain SSCH8400, GlpT W161L): 469 µM (≈ 85.8 µg/mL)
- MIC ([8]; read-out: FSM MIC, strain SSCH8586, GlpT G99E): > 1500 µM
- MIC ([8]; read-out: FSM MIC, strain SSCH8774, GlpT Q379P): > 1500 µM
- IC50 [9]: 0.23 ± 0.03 µM
- mechanism-of-action on viable cells [14]: bacteriostatic
- IC50 [10]: 1.16 ± 0.69 µM
- inhibition of S. aureus growth [4]: neither FSM nor FR-900098 inhibit S. aureus growth
- IC50 [4]: > 100 µM
- IC50 [11]: 0.29 ± 0.08 µM
- IC50 [12]: 0.39 ± 0.02 µM

B1: S. schleiferi DXR enzyme (Staphylococcus schleiferi) (protein)
chain: MKNIAILGASGSIGQQAIDVIARHPESFNLISFTVGKNIEFAIEVIEKFKPEIVSVQDEADVERLKPYHSNIVSGRQGLIDVSTYEKNDLVLNALLGSVGLEPTMKAIEAGKNIALANKETLVVAGKLVMTHAKRYGVDILPVDSEHAAIFQCLNGEDMHKIKNVTITASGGSFRELTREQLEHVTVGDALNHPNWSMGNKITIDSATMMNKGFEVIEAKWLFDLKIDQIKTILHKESIIHSLVEFVDTSVMAQLGTPDMRMPIQYAFTYPERIEHRAPSLDLVQVAQLHFQEMDLDRYRCLKFAYDALRIGGSMPVVLNAVNEVAVAKFLNHEITFLEIEHMIEREMSAHEVIPDPSLEEILEIDHYYKTKSYEV
- Km [18]: 520 ± 80 µM
